Reference: US20080221205A1, “FURAN DERIVATIVES FOR PREVENTING AND CURING OSTEOPOROSIS AND PHARMACEUTICAL COMPOSITIONS CONTAINING THE SAME” (priority 2002, published 2008)

Tested on: osteoclast formation
Experiment: Inhibition rate of furan derivatives versus osteoclast formation (TRAP staining)
Format: cell-based, mice
Conditions: TRAP-positive multinucleated cells, untreated control set as 100%
Method: First, bone marrow cells were isolated, as follow. After sacrificing 7-9 week female mice by cervical dislocation, femur and tibia were excised aseptically while removing attached soft tissues. After cutting both ends of long bones, 1 ml of an enzyme solution, containing 0.1% collagenase (Gibco), 0.05% trypsin and 0.5 mM EDTA (Gibco), was injected to the bone marrow cavity at one end using a syringe with a 26-guage needle, and bone marrow was then collected. After shaking the recovered bone marrow for 30 min, bone marrow cells were collected, and cultured in α-minimum essential medium (α-MEM) supplemented with 10% FBS for 24 hrs. Then, non-adherent cells were collected, which are osteoclast pregenitors, aliquotted onto culture plates at a density of 2×10^5 cells per well, and cultured for 8 days in α-MEM supplemented with 20 ng/ml of macrophage-colony stimulating factor (M-CSF, Peprotech, USA) and 30 ng/ml RANKL (Peprotech, USA). During the 8 days of culturing, the cells were treated with the Compound 1. Thereafter, osteoclast formation was investigated by fixing the cultured cells and then carrying out TRAP staining, as described in the following Experimental Example 2.2. In addition, resorption activity of osteoclasts was investigated by measuring the absorption area after removing osteoclasts in cultures in calcium phosphate-coated plates, as described in Experimental Example 2.3, below.
After cell culture, the adherent cells were washed with PBS, and TRAP staining was performed, as follows. After being fixed with citrate-acetate-formaldehyde for 5 min, the cells were incubated for 1 hr in acetate buffer (prewarmed at 37° C., pH 5.0) containing naphthol AS-BI phosphate, fast Garnet GBC and 7 mM tartrate buffer (pH 5.0). TRAP-positive multinucleated cells having 3 or more nuclei were considered as osteoclasts.
Osteoclast pregenitor cells were isolated, and their differentiation to mature osteoclasts was induced, according to the same method as in the Experimental Example 2-1, while treated with each of the furan derivatives of the present invention. According to the same method as in the Experimental Example 2-2, TRAP staining performed, and TRAP-positive multinucleated cells were counted. An inhibition rate of each furan derivative against osteoclast formation was expressed as percentage, wherein the number of stained cells in a control not treated the furan derivative was arbitrarily set as 100% (Tables 14 to 16).

SMILES | Inhibition rate against osteoclast formation, % (0.1 μM) [%] | Inhibition rate against osteoclast formation, % (1 μM) [%] | Inhibition rate against osteoclast formation, % (10 μM) [%]
O=C(O)c1ccc(COc2cc(Cl)ccc2Cl)o1 [Compound 109] | 0 | 0 | 
Cc1ccc(F)c(NC(=O)c2ccc(COc3ccccc3[N+](=O)[O-])o2)c1 [Compound 158] | 0 | 0 | 
COc1ccc(NC(=O)c2ccc(COc3cc(Cl)ccc3Cl)o2)c(OC)c1 [Compound 145] | 0 |  | 
COC(=O)c1ccc(COc2ccc(Cl)c(C)c2)o1 [Compound 75] | 0 | 0 | 0.78
O=C(Nc1ccc(F)c(F)c1)c1ccc(COc2ccc(I)cc2)o1 [Compound 143] | 0 | 0 | 
COC(=O)c1ccc(COc2ccc(Cl)cc2Cl)o1 [Compound 60] | 0 | 0 | 
COC(=O)c1ccccc1NC(=O)c1ccc(COc2ccc(C)c(C)c2)o1 [Compound 180] | 0 | 0 | 
Cc1ccc(F)c(NC(=O)c2ccc(COc3ccc(C)cc3[N+](=O)[O-])o2)c1 [Compound 155] | 0 | 0 | 
O=Cc1ccc(COC(=O)Nc2cccc(Cl)c2)o1 [Compound 49] | 0 | 10 | 0
COC(=O)c1ccc(COc2ccccc2[N+](=O)[O-])o1 [Compound 67] | 0 | 0 | 
CC1CCN(C(=O)c2ccc(COc3cc(Cl)ccc3Cl)o2)CC1 [Compound 124] | 0 | 0 | 
Cc1cc(OCc2ccc(C(=O)N3CCOCC3)o2)ccc1Cl [Compound 132] | 0 | 0 | 
COc1cc([N+](=O)[O-])ccc1NC(=O)c1ccc(COc2ccc(Cl)cc2)o1 [Compound 182] | 0 | 0 | 
O=C(Nc1ccccc1F)c1ccc(COc2ccc(Cl)cc2)o1 [Compound 178] | 0 | 0 | 
CC(C)(C)c1ccc(OCc2ccc(C(=O)NC3CCCCC3)o2)cc1 [Compound 134] | 0 | 0 | 
COC(=O)c1ccccc1NC(=O)c1ccc(COc2ccc(Cl)cc2Cl)o1 [Compound 167] | 0 |  | 
O=C(O)c1ccc(CSCc2ccccc2)o1 [Compound 120] | 0 | 0 | 
O=C(Nc1ccc(F)cc1)c1ccc(COc2cccc(Cl)c2)o1 [Compound 141] | 0 | 0 | 
CCC(C)NC(=O)c1ccc(COc2ccc(I)cc2)o1 (stereo not shown) [Compound 121] | 0 | 0 | 
O=C(O)c1ccc(COc2ccc(F)cc2)o1 [Compound 102] | 0 | 0 | 
COc1ccccc1NC(=O)c1ccc(COc2ccc(C(C)(C)C)cc2)o1 [Compound 189] | 0 | 0 | 
O=Cc1ccc(COC(=O)Cc2ccsc2)o1 [Compound 36] | 0 |  | 30
COC(=O)c1ccc(CNC(C)(C)C)o1 [Compound 91] | 0 | 0 | 
COC(=O)c1ccc(C)c(NC(=O)c2ccc(COc3ccc(I)cc3)o2)c1 [Compound 152] |  | 0.08 | 
COc1ccccc1NC(=O)c1ccc(COc2ccccc2OC)o1 [Compound 166] | 0 | 0 | 
O=C(Nc1cc(F)ccc1F)c1ccc(COc2ccccc2Cl)o1 [Compound 161] | 0 | 0 | 

SMILES | Inhibition rate against osteoclast formation, % (0.1 μM) [%] | Inhibition rate against osteoclast formation, % (1 μM) [%] | Inhibition rate against osteoclast formation, % (10 μM) [%]
CC(C)OC(=O)c1ccc(COc2cc(Cl)ccc2Cl)o1 [Compound 95] | 0 | 0 | 0.97
O=C(Nc1ccc(I)cc1)c1ccc(COc2ccccc2Br)o1 [Compound 190] | 0 | 0 | 
O=C(O)c1ccc(COc2cccc3ccccc23)o1 [Compound 117] | 0 | 0 | 
CC(C)c1ccc(OCc2ccc(C(=O)O)o2)cc1 [Compound 114] | 0 | 0 | 4.2
COc1ccc(NC(=O)c2ccc(COc3ccccc3Cl)o2)cc1Cl [Compound 142] | 0 | 0 | 
CCCc1ccc(OCc2ccc(C(=O)O)o2)cc1 [Compound 100] | 0 | 0 | 
O=Cc1ccc(COC(=O)Cc2ccc3ccccc3c2)o1 [Compound 38] | 0 |  | 20
COc1ccccc1OCc1ccc(C(=O)Nc2ccc(C)c(C)c2)o1 [Compound 175] | 0 | 0 | 
O=C(O)c1ccc(COc2ccccc2Cl)o1 [Compound 107] | 0 | 0 | 32
O=C(Nc1ccc(F)cc1F)c1ccc(COc2c(F)c(F)cc(F)c2F)o1 [Compound 185] | 0 | 0 | 
O=C(Nc1cc(C(F)(F)F)ccc1Cl)c1ccc(COc2ccc(Cl)cc2)o1 [Compound 181] | 0 | 0 | 
O=Cc1ccc(COC(=O)Cc2c(F)cccc2Cl)o1 [Compound 34] | 0 |  | 
O=Cc1ccc(COC(=O)C(c2ccccc2)(c2ccccc2)c2ccccc2)o1 [Compound 40] | 0 |  | 
COc1cccc(F)c1CC(=O)OCc1ccc(C=O)o1 [Compound 41] | 0 |  | 
CC(C)(C)c1ccc(OCc2ccc(C(=O)Nc3ccccc3)o2)cc1 [Compound 136] | 0 | 0 | 
CCc1ccc(OCc2ccc(C(=O)Nc3cc(C)cc(C)c3)o2)cc1 [Compound 169] | 0 | 0 | 
C=CCc1ccc(OCc2ccc(C(=O)OC)o2)c(OC)c1 [Compound 59] | 0 | 0 | 
CC(C)NC(=O)c1ccc(CNc2cc(Cl)ccc2Cl)o1 [Compound 130] | 0 | 0 | 
Cc1cc(OCc2ccc(C(=O)O)o2)ccc1Cl [Compound 119] | 0 | 0 | 
COC(=O)c1ccc(COc2ccc3c(c2)CCC3)o1 [Compound 70] | 0 | 0 | 
O=C(Nc1ccccc1[N+](=O)[O-])c1ccc(COc2ccccc2Cl)o1 [Compound 183] | 0 | 0 | 
COc1ccccc1OCc1ccc(C(=O)OC(C)C)o1 [Compound 94] | 0 | 0 | 5.9
O=Cc1ccc(COC(=O)Cc2cccc(Cl)c2)o1 [Compound 35] | 0 |  | 
COC(=O)c1ccc(COc2ccccc2Cl)o1 [Compound 61] | 0 | 0 | 
O=Cc1ccc(COC(=O)Cc2cccc(F)c2)o1 [Compound 37] | 0 | 10 | 
CCCCNC(=O)OCc1ccc(C=O)o1 [Compound 53] | 0 | 10 | 
